Starred links: 1 amine or outer side, 2 acyl side, 3 side chain; linkers in the order of their positions; H or OH if unused. Positions of bridges follow the written chain, without caps; N, C: chain ends. Non-standard residues stand in square brackets, D forms with d. Residues, ends and D or L forms follow the SMILES beside them. *: point of attachment. Bip(4'-NHCO-C6H4-4-CH2COOH) = N[C@@H](Cc1ccc(-c2ccc(NC(=O)c3ccc(CC(=O)O)cc3)cc2)cc1)C(=O)O; X37 = O=C(Nc1ccc(-c2ccc(C[C@H](N[*:1])C(=O)[*:2])cc2)cc1)c1ccc2ccccc2c1; Bip(4'-NH) = O=C([C@H](Cc1ccc(-c2ccc(N[*:3])cc2)cc1)N[*:1])[*:2]; Bip(4'-CONHMe) = CNC(=O)c1ccc(-c2ccc(C[C@H](N)C(=O)O)cc2)cc1; Indazole3carbonyl(1-CH2COOH) = O=C(O)Cn1nc(C(=O)*)c2ccccc21; Bip(4'-COOH) = N[C@@H](Cc1ccc(-c2ccc(C(=O)O)cc2)cc1)C(=O)O; Bip(4'-NHAc) = CC(=O)Nc1ccc(-c2ccc(C[C@H](N)C(=O)O)cc2)cc1; X8 = N=C(NCCC[C@@H](N[*:1])C(=O)[*:2])NCCc1ccc(CN)cc1; Ala(morpholin-4-yl) = N[C@@H](CN1CCOCC1)C(=O)O; Phe(3-CONH2) = NC(=O)c1cccc(C[C@H](N)C(=O)O)c1; Bip = N[C@@H](Cc1ccc(-c2ccccc2)cc1)C(=O)O; hArg = N=C(N)NCCCC[C@H](N)C(=O)O; 2Pal = N[C@@H](Cc1ccccn1)C(=O)O; Cha = N[C@@H](CC1CCCCC1)C(=O)O; Chg = N[C@H](C(=O)O)C1CCCCC1; Sar = CNCC(=O)O Some results are limits rather than exact numbers.

The target in the first experiment is TNFα (Homo sapiens, UniProt P01375). Briefly: TNF-Induced HEK-Blue Assay. It counts as cell-based.
Chain of TNFα (P01375 77-233 limits assumed): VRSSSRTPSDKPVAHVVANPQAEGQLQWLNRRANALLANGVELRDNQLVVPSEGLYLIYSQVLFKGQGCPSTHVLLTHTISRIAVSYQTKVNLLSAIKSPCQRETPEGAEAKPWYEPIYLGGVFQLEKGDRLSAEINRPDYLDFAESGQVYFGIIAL
Conditions: not given
The IC50 is the point on the concentration scale where inhibition reaches its midpoint. The compound `CC(C)C[C@@H]1NC(=O)[C@H](CCCNC(=N)N)NC(=O)[C@H](C(C)C)NC(=O)[C@@H]2CCCN2C(=O)[C@H](C(C)C)NC(=O)[C@@H](CCCNC(=N)NCCc2ccc(CN)cc2)NC(=O)[C@H](CC(=O)O)NC(=O)[C@@H]2CCCN2C(=O)CN(C)C(=O)[C@H](Cc2ccc(-c3ccc(NC(=O)c4nn(CC(=O)O)c5ccccc45)cc3)cc2)NC(=O)[C@H](Cc2ccc(-c3ccccc3)cc2)NC(=O)[C@H](CN2CCOCC2)NC(=O)CSC[C@@H](C(=O)NCC(N)=O)NC1=O` [Example 429] ({CH2CO}-[Ala(morpholin-4-yl)][Bip][Bip(4'-NH)](Indazole3carbonyl(1-CH2COOH))[Sar]PD[X8]VPVRLCG-NH2; thioether N-13) registered an IC50 of 200 to 2000 nM.

The experiment is the same for the next values; noted with them: HEK-Blue-CD40L cells, NF-kB-driven secreted alkaline phosphatase reporter; TNFα 0.5 ng/ml; 18 h; read-out: TNF induced HEK-Blue assay IC50 value.
Turning to `CC[C@H](C)[C@@H]1NC(=O)[C@@H](CCCNC(=N)N)NC(=O)[C@H](CC(=O)O)NC(=O)[C@H](Cc2cnc[nH]2)NC(=O)CN(C)C(=O)[C@H](Cc2ccc(-c3ccc(NC(=O)c4ccc(CC(=O)O)cc4)cc3)cc2)NC(=O)[C@H](Cc2ccc(-c3ccc(C(=O)NC)cc3)cc2)NC(=O)[C@H](CC2CCCCC2)NC(=O)CSC[C@@H](C(=O)NCC(N)=O)NC(=O)[C@H](CC(C)C)NC(=O)[C@H](Cc2cnc[nH]2)NC(=O)[C@H](C(C)C)NC(=O)[C@@H]2CCCN2C1=O` [Example 528] ({CH2CO}-[Cha][Bip(4'-CONHMe)][Bip(4'-NHCO-C6H4-4-CH2COOH)][Sar]HD[dR]IPVHLCG-NH2; thioether N-13), the concentration for half-maximal inhibition (IC50) was less than 50 nM.
Still for that read-out and setting: the value for `CC(=O)Nc1ccc(-c2ccc(C[C@@H]3NC(=O)[C@H](Cc4ccc(-c5ccc(C(=O)O)cc5)cc4)NC(=O)[C@H](CN4CCOCC4)NC(=O)CSC[C@@H](C(=O)NCC(N)=O)NC(=O)[C@H](CC(C)C)NC(=O)[C@H](Cc4cccc(C(N)=O)c4)NC(=O)[C@H](C4CCCCC4)NC(=O)[C@@H]4CCCN4C(=O)[C@H](C(C)C)NC(=O)[C@@H](CCCNC(=N)N)NC(=O)[C@H](CC(=O)O)NC(=O)[C@@H]4CCCN4C(=O)CN(C)C3=O)cc2)cc1` [Example 320] ({CH2CO}-[Ala(morpholin-4-yl)][Bip(4'-COOH)][Bip(4'-NHAc)][Sar]PD[dR]VP[Chg][Phe(3-CONH2)]LCG-NH2; thioether N-13) was 200 to 2000 nM; that for `CC[C@H](C)[C@@H]1NC(=O)[C@@H](CCCNC(=N)N)NC(=O)[C@H](CC(=O)O)NC(=O)[C@H](Cc2ccccn2)NC(=O)CN(C)C(=O)[C@H](Cc2ccc(-c3ccc(NC(C)=O)cc3)cc2)NC(=O)[C@H](Cc2ccc(-c3ccccc3)cc2)NC(=O)[C@H](CN2CCOCC2)NC(=O)CSC[C@@H](C(=O)NCC(N)=O)NC(=O)[C@H](CC(C)C)NC(=O)[C@H](Cc2cnc[nH]2)NC(=O)[C@H](C(C)C)NC(=O)[C@@H]2CCCN2C1=O` [Example 522] ({CH2CO}-[Ala(morpholin-4-yl)][Bip][Bip(4'-NHAc)][Sar][2Pal]D[dR]IPVHLCG-NH2; thioether N-13) was less than 50 nM.
For the compound `CC(C)C[C@@H]1NC(=O)[C@H](CCCCNC(=N)N)NC(=O)[C@H](C(C)C)NC(=O)[C@@H]2CCCN2C(=O)[C@H](C(C)C)NC(=O)[C@@H](CCCNC(=N)N)NC(=O)[C@H](CC(=O)O)NC(=O)[C@H](Cc2ccc(O)cc2)NC(=O)CN(C)C(=O)[C@H](Cc2ccc(-c3ccccc3)cc2)NC(=O)[C@H](Cc2ccc(-c3ccccc3)cc2)NC(=O)[C@H](CN2CCOCC2)NC(=O)CSC[C@@H](C(=O)NCC(N)=O)NC1=O` [Example 159] ({CH2CO}-[Ala(morpholin-4-yl)][Bip][Bip][Sar]YD[dR]VPV[hArg]LCG-NH2; thioether N-13), the IC50 was less than 50 nM.
On to `CC[C@H](C)[C@@H]1NC(=O)[C@@H](CCCNC(=N)N)NC(=O)[C@H](CC(=O)O)NC(=O)[C@H](Cc2cnc[nH]2)NC(=O)CN(C)C(=O)[C@H](Cc2ccc(-c3ccc(NC(=O)c4ccc5ccccc5c4)cc3)cc2)NC(=O)[C@H](Cc2ccc(-c3ccccc3)cc2)NC(=O)[C@H](CC2CCCCC2)NC(=O)CSC[C@@H](C(=O)NCC(N)=O)NC(=O)[C@H](CC(C)C)NC(=O)[C@H](Cc2cnc[nH]2)NC(=O)[C@H](C(C)C)NC(=O)[C@@H]2CCCN2C1=O` [Example 322] ({CH2CO}-[Cha][Bip][X37][Sar]HD[dR]IPVHLCG-NH2; thioether N-13), for which the IC50 fell in the range of 50 to 200 nM.
